Assay results: patent US12436156B2, “Methods of determining pH and calcium or chloride concentration in samples” (The University of Chicago, priority 2018, dated 2025)
Structures can show the parent of a compound that is named as a salt.

Columns and labels:
Assay type in all cases: cell-based, human
lysosomes in HDF cells [1] = test: 2-IM upon addition of lysosomal proton pump and ion channel blocker; conditions: ChloropHoreLy labelled, 500 nM bafilomycin A1 or 300 μM NPPB, 45 min
Method: Lysosomal pH and chloride measurements. Fibroblast cells are pulsed with 2 μM of I^mLy, ChloropHore or ChloropHoreLy for 1 h, chased for 9 h (30 min pulse and 1 h chase for J774. A1, BHK-21 and T47D cells) and then washed with 1×PBS and subjected for imaging.
2-IM upon addition of lysosomal proton pump and ion channel blocker. Upon lysosome labeling, final concentration of 500 nM bafilomycinA1 and 300 μM of 5-nitro-2-(3-phenylpropyl-amino) benzoic acid (NPPB) were added to cells and incubated for 45 min. Cells was then washed with PBS and imaged in Hank's Balanced Salt Solution (HBSS) containing the respective blocker compounds.
(§1) Image analysis for pH and sensors. Images were analyzed with ImageJ/Fiji 2.0.0-rc-54/1.51h. pH and chloride measurements are performed as described previously. To generate a density plot to represent lysosomal populations, the individual D/A (Y-axis) versus the corresponding R/G (X-axis) values was first plotted for each lysosome that was obtained for a given fibroblast sample comprising ˜60 cells and ˜600 lysosomes. Density plots were generated using 2D Kernel Density plot on Origin 2018 SR1 b9.5.1.195 (OriginLab, USA). […] To normalize between experiments done on different days, the lysosomal pH and Cl− of a sample of normal HDF cells was always measured as well, the density plot of which served as the reference. […]

lysosomes in HDF cells [2] = test: 2-IM in pharmacologically induced cell culture models for NP-A/B and NP-C; conditions: HDF cells from a healthy individual; 65 μM AH or 20 μM U18666A, 24 h
Method: Niemann Pick type A/B and C models were prepared according to the previous reported method. Cells were incubated with 65 μM of the acid sphingomyelinase (ASM) inhibitor amitriptyline (AH) and 20 μM of the NPC1 inhibitor U18666A for 24 h to create a NP-A/B and NP-C models respectively. The cells are pulsed with 2 μM of ChloropHoreLY and either 65 μM AH or 20 μM U18666A for 1 h, chased with either 65 μM AH or 20 μM U18666A for 9 h and then washed with 1×PBS and imaged.
Image analysis for pH and sensors. Images were analyzed with ImageJ/Fiji 2.0.0-rc-54/1.51h. pH and chloride measurements are performed as described previously. To generate a density plot to represent lysosomal populations, the individual D/A (Y-axis) versus the corresponding R/G (X-axis) values was first plotted for each lysosome that was obtained for a given fibroblast sample comprising ˜60 cells and ˜600 lysosomes. Density plots were generated using 2D Kernel Density plot on Origin 2018 SR1 b9.5.1.195 (OriginLab, USA). This converted the individual scatter points into a population matrix as a probability density function. The density plot is then pseudo colored to represent high density in red (values close to 1) and low density in blue (values closer to 0). Those points with <10% probability on the plot were discarded. For normalization between days, the point of highest density (value =1) of normal HDF cells was designated as the center of the plot with x,y coordinates (1,1). To normalize between experiments done on different days, the lysosomal pH and Cl− of a sample of normal HDF cells was always measured as well, the density plot of which served as the reference. All density plots acquired on the same day with the same settings were thus normalized to the HDF cell density plots to enable comparison of data across different days.

[3] = tested on: lysosomes of NP-C patient fibroblasts; test: Lysosomal population rescue using β-CD in NP-C patient fibroblasts (2-IM); conditions: NP-C patient samples mutated in NPC1 or NPC2, 50 μM, 24 h
Method: (§2) Lysosomal population rescue using ASM and β-CD. Recombinant human acid sphingomyelinase was incubated with NP-A/B patient cells according to the previous method. Primary human fibroblasts derived from NP-A/B patients were maintained in DMEM medium with 1% FBS for 24 h. The medium was then changed to DMEM with 1% FBS containing 0.2% BSA and 5 μg of rhASM. After 24 h, the cells are pulsed with 2 μM of ChloropHoreLy for 1 h, chased for 9 h and then washed with 1×PBS and imaged. Primary human fibroblasts from NP-C patient were incubated with 50 μM of o-Hydroxypropyl-β-cyclodextrin (β-CD) for 24 h. The cells are pulsed with 2 μM of ChloropHoreLy and 50 μM of β-CD for 1 h, chased with 50 μM of β-CD for 9 h and then washed with 1×PBS and imaged.
as §1, with “lysosomes.” for “lysosomes. Density plots were generated using 2D Kernel Density plot on Origin 2018 SR1 b9.5.1.195 (OriginLab, USA).”

[4] = tested on: lysosomes of NP-A and NP-B patient fibroblasts; test: Lysosomal population rescue using ASM in NP-A/B patient fibroblasts (2-IM); conditions: 5 μg rhASM, 24 h
Method: as §2
as §1, with “lysosomes.” for “lysosomes. Density plots were generated using 2D Kernel Density plot on Origin 2018 SR1 b9.5.1.195 (OriginLab, USA).”

Molecule	high Cl-, high acidity lysosome population (2-IM profile) (lysosomes in HDF cells [1])	high chloride, high acidity lysosome population (2-IM profile) (lysosomes in HDF cells [2])	lysosome population in 2-IM profile (lysosomes in HDF cells [2])	other results
O=C(O)c1cc([N+](=O)[O-])ccc1NCCCc1ccccc1 [5-nitro-2-(3-phenylpropylamino) benzoic acid]	lost			
CCN(CC)CCO[C@H]1CC[C@@]2(C)C(=CC[C@@H]3[C@@H]2CC[C@]2(C)C(=O)CC[C@@H]32)C1 [U18666A]		depletion	monodisperse	
CN(C)CCC=C1c2ccccc2CCc2ccccc21 [amitriptyline hydrochloride]		depletion	monodisperse	
CO/C1=C\C(C)=C\[C@@H](C)[C@@H](O)[C@@H](C)C/C(C)=C/C=C/[C@H](OC)[C@@H]([C@@H](C)[C@@H](O)[C@H](C)[C@@]2(O)C[C@@H](O)[C@H](C)[C@@H](C(C)C)O2)OC1=O [bafilomycin Al]	lost			
o-2-hydroxypropyl-β-cyclodextrin [RCD]				lysosomes with higher lumenal Cl- and H+ content (2-IM profile) [3]: appearance; monodispersity of the 2-IM profile [3]: loss of monodispersity
rhASM: Recombinant human acid sphingomyelinase, enzyme replacement therapy for NP-A/B (protein, UniProt P17405 47-631, looked up) Sphingomyelin …: LALSDSRVLWAPAEAHPLSPQGHPARLHRIVPRLRDVFGWGNLTCPICKGLFTAINLGLKKEPNVARVGSVAIKLCNLLKIAPPAVCQSIVHLFEDDMVEVWRRSVLSPSEACGLLLGSTCGHWDIFSSWNISLPTVPKPPPKPPSPPAPGAPVSRILFLTDLHWDHDYLEGTDPDCADPLCCRRGSGLPPASRPGAGYWGEYSKCDLPLRTLESLLSGLGPAGPFDMVYWTGDIPAHDVWHQTRQDQLRALTTVTALVRKFLGPVPVYPAVGNHESTPVNSFPPPFIEGNHSSRWLYEAMAKAWEPWLPAEALRTLRIGGFYALSPYPGLRLISLNMNFCSRENFWLLINSTDPAGQLQWLVGELQAAEDRGDKVHIIGHIPPGHCLKSWSWNYYRIVARYENTLAAQFFGHTHVDEFEVFYDEETLSRPLAVAFLAPSATTYIGLNPGYRVYQIDGNYSGSSHVVLDHETYILNLTQANIPGAIPHWQLLYRARETYGLPNTLPTAWHNLVYRMRGDMQLFQTFWFLYHKGHPPSEPCGTPCRLATLCAQLSARADSPALCRHLMPDGSLPEAQSLWPRPLFC				high chloride, high acidity lysosome population (2-IM profile) [4]: reemergence
